This is an account of results in patent EP1799816B1, “NOVEL LACCASE ENZYME AND USE THEREOF” (AB Enzymes Oy, priority 2004, dated 2006).

In data set [1] the target is T1, recombinant Thielavia arenaria TaLcc1 laccase (rTaLcc1) expressed in Trichoderma reesei, SEQ ID NO: 12 (Canariomyces arenarius, UniProt F6N9E7).
T1 sequence (F6N9E7 22-604): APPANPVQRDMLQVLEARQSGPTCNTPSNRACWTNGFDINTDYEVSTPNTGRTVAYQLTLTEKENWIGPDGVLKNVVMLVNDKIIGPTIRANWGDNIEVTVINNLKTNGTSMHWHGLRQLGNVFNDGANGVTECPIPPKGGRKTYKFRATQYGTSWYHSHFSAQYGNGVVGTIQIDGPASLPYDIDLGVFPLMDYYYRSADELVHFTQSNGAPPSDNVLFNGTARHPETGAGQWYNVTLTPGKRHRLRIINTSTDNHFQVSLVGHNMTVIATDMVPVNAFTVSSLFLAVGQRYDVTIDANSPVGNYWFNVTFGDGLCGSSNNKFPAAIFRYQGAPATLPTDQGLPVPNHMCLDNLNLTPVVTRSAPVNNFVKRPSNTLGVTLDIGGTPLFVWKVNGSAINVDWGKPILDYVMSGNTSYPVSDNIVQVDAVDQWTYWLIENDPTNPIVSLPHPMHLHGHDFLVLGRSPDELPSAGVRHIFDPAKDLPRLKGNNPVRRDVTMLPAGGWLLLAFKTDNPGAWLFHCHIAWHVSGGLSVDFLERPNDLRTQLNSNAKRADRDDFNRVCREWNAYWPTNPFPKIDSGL
It is filed as biochemical. How it is done: (§1) On syringaldazin and DMP 40 mM MES buffer, pH 6 and 25 mM succinate bluffer, All activity assays were carried out at 25°C. Kinetic parameters were estimated by a nonlinear regression curve fit. The values were compared to those of Melanocarpus albomyces MaL, laccase.

The target of data set [2] is T2, Melanocarpus albomyces laccase MaL (Melanocarpus albomyces, UniProt Q70KY3).
T2 sequence (Q70KY3 51-609): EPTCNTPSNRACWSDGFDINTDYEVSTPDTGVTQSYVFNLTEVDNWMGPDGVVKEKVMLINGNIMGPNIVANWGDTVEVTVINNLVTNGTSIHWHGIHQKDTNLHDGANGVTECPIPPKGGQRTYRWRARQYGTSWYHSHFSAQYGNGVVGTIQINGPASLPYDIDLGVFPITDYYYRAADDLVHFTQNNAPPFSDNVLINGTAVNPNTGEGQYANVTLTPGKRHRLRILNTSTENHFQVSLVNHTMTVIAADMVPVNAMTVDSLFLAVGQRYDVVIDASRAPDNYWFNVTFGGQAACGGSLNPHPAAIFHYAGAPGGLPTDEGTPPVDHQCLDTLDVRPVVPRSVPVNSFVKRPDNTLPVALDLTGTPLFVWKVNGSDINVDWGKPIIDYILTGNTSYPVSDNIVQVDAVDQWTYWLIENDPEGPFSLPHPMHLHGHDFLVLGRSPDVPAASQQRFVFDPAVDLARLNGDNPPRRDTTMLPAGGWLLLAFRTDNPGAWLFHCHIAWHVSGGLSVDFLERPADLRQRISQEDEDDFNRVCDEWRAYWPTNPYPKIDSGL
The experiment in a line: Kinetic parameters (Km, kcat, kcat/Km) on laccase substrates. The class given is biochemical. The conditions noted are these: substrate ABTS; 25 mM succinate buffer, pH 4.5, 25°C; comparison enzyme. As for the experimental part:
as §1

In data set [3] the test system is recombinant Thielavia arenaria TaLcc1 laccase (rTaLcc1). It is filed as biochemical. How it is done: Table 2. Inhibition of the Thielavia wild type laccase.
The inhibition effect of different compounds on the activity of the recombinant TaLcc1 laccase was determined as described in Example 2. Table 7. Inhibition of the recombinant Thielavia arenaria TaLcc1 laccase (rTaLcc1) activity by various compounds.

Data set [4] concerns Thielavia wild type laccase.
Substrate in data set [5]: COc1cccc(OC)c1O
Briefly: Kinetic parameters (Km, kcat, kcat/Km) on laccase substrates. The class given is biochemical, Melanocarpus albomyces. The conditions noted are these: other: substrate DMP, 25°C, buffer unclear, comparison enzyme.

Substrate in data set [6]: COc1cc(C=NN=Cc2cc(OC)c(O)c(OC)c2)cc(OC)c1O
The description is as above. The conditions noted are these: other: substrate Syringaldazin, 25°C, buffer unclear, comparison enzyme. The class given is biochemical, Melanocarpus albomyces.

Where “and” joins values, the source holds several entries; their conditions need not be identical. Equal entries are not always repeated. Where two headings read alike, the source gives them in different places.

A word on the kcat: it is the number of substrate molecules converted per active site and unit of time at saturation. By Km is commonly meant the substrate concentration at which the rate is half of its maximum. For the molecule `CCn1c(=NN=c2sc3cc(S(=O)(=O)O)ccc3n2CC)sc2cc(S(=O)(=O)O)ccc21` [ABTS, 2,2'azinobis-3-ethylbenzthiazole-6-sulphonate], the turnover number (kcat) in data set [1] (substrate ABTS, 25 mM succinate buffer, pH 4.5, 25°C) stood at 68.83 s⁻¹. In data set [2], the Km stood at 270 µM and the kcat was 78.17 s⁻¹.

For `[Cl-].[Na+]` [NaCl], in data set [3], the “Inhibition (%) of laccase rTaLcc1” value was determined as 0%. Moreover, in data set [4] (pH 4.5), the “Inhibition(%) wt TaLcc1” value was 35% and 42%.

As to `O=C(O)CN(CCN(CC(=O)O)CC(=O)O)CC(=O)O` [EDTA], the “Inhibition (%) of laccase rTaLcc1” value in data set [3] (inhibitor 10 mM, ABTS as substrate) stood at 5%. Moreover, the “Inhibition(%) wt TaLcc1” value in data set [4] (inhibitor 10 mM, 2 mM ABTS, 25 mM succinate buffer pH 4.5) was 0%.

With `[N-]=[N+]=[N-].[Na+]` [NaN3], the “Inhibition (%) of laccase rTaLcc1” value in data set [3] was found to be 95%.

Regarding `COc1cc(C=NN=Cc2cc(OC)c(O)c(OC)c2)cc(OC)c1O` [Syringaldazin, syringaldazine], in data set [1] (substrate Syringaldazin, 25°C, buffer unclear (40 mM MES buffer, pH 6 / 25 mM succinate buffer)), the kcat amounted to 32.33 s⁻¹.

B1: Melanocarpus albomyces laccase MaL (Melanocarpus albomyces) (protein)
chain: EPTCNTPSNRACWSDGFDINTDYEVSTPDTGVTQSYVFNLTEVDNWMGPDGVVKEKVMLINGNIMGPNIVANWGDTVEVTVINNLVTNGTSIHWHGIHQKDTNLHDGANGVTECPIPPKGGQRTYRWRARQYGTSWYHSHFSAQYGNGVVGTIQINGPASLPYDIDLGVFPITDYYYRAADDLVHFTQNNAPPFSDNVLINGTAVNPNTGEGQYANVTLTPGKRHRLRILNTSTENHFQVSLVNHTMTVIAADMVPVNAMTVDSLFLAVGQRYDVVIDASRAPDNYWFNVTFGGQAACGGSLNPHPAAIFHYAGAPGGLPTDEGTPPVDHQCLDTLDVRPVVPRSVPVNSFVKRPDNTLPVALDLTGTPLFVWKVNGSDINVDWGKPIIDYILTGNTSYPVSDNIVQVDAVDQWTYWLIENDPEGPFSLPHPMHLHGHDFLVLGRSPDVPAASQQRFVFDPAVDLARLNGDNPPRRDTTMLPAGGWLLLAFRTDNPGAWLFHCHIAWHVSGGLSVDFLERPADLRQRISQEDEDDFNRVCDEWRAYWPTNPYPKIDSGL
A word on the kcat/Km: it is the second-order rate constant that governs catalysis at low substrate concentration. As to B1, in data set [5], the Km was 5 µM, the catalytic constant (kcat) came to 69.33 s⁻¹ and the specificity constant (kcat/Km) was 1.35e+07 M⁻¹ s⁻¹. In data set [6], the Km is 1.3 µM, the kcat amounted to 78.5 s⁻¹ and the kcat/Km was found to be 6e+07 M⁻¹ s⁻¹.
